Results from ChEMBL document CHEMBL1201862, “PubChem BioAssay data set” (2004).
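1) Cells in 96-well plates. 2) Compound, 48 h, 5 concentrations. 3) Linear interpolation between surrounding doses. 4) Unreached endpoint = highest concentration. The concentration for 50% growth inhibition is given as GI50.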 Activity calls are given as the source filed them. Rule as the data show it: active = GI50 up to about 1.1 µM and inactive = higher.

Key:
Assay in all cases: NCI tumour cell line growth inhibition, 48 h
786-0 = test system: 786-0
A498 = test system: A498
A549 = test system: A549
ACHN = test system: ACHN
BT-549 = test system: BT-549
CAKI-1 = test system: CAKI-1
CCRF-CEM = test system: CCRF-CEM
COLO 205 = test system: COLO 205
DU-145 = test system: DU-145
EKVX = test system: EKVX
HCT-116 = test system: HCT-116
HCT-15 = test system: HCT-15
HL-60 = test system: HL-60
HOP-62 = test system: HOP-62
HOP-92 = test system: HOP-92
HT-29 = test system: HT-29
Hs-578T = test system: Hs-578T
IGROV-1 = test system: IGROV-1
K562 = test system: K562
KM12 = test system: KM12
LOX IMVI = test system: LOX IMVI
M14 = test system: M14
MDA-MB-231 = test system: MDA-MB-231
MDA-MB-435 = test system: MDA-MB-435
MDA-N = test system: MDA-N
MOLT-4 = test system: MOLT-4
Malme-3M = test system: Malme-3M
NCI-H226 = test system: NCI-H226
NCI-H23 = test system: NCI-H23
NCI-H460 = test system: NCI-H460
NCI-H522 = test system: NCI-H522
NCI/ADR-RES = test system: NCI/ADR-RES
OVCAR-3 = test system: OVCAR-3
OVCAR-4 = test system: OVCAR-4
OVCAR-5 = test system: OVCAR-5
OVCAR-8 = test system: OVCAR-8
PC-3 = test system: PC-3
RPMI-8226 = test system: RPMI-8226
RXF 393 = test system: RXF 393
SF-268 = test system: SF-268
SF-295 = test system: SF-295
SF-539 = test system: SF-539
SK-MEL-28 = test system: SK-MEL-28
SK-MEL-2 = test system: SK-MEL-2
SK-MEL-5 = test system: SK-MEL-5
SK-OV-3 = test system: SK-OV-3
SN12C = test system: SN12C
SNB-19 = test system: SNB-19
SR = test system: SR
SW-620 = test system: SW-620
T47D = test system: T47D
TK-10 = test system: TK-10
U-251 = test system: U-251
UACC-257 = test system: UACC-257
UACC-62 = test system: UACC-62
UO-31 = test system: UO-31
HCC 2998 = test system: HCC 2998
SNB-75 = test system: SNB-75

In the case of `Cc1ccc(-c2sc(-c3ccc(C)cc3)c3c2C2CCC3C2)cc1`, the GI50 (786-0) is reported as > 50 µM (inactive), the GI50 (A498) is reported as > 50 µM (inactive) and the GI50 (A549) is reported as > 50 µM (inactive). The GI50 (ACHN) was > 50 µM (inactive), the GI50 (BT-549) was > 50 µM (inactive) and the GI50 (CAKI-1) was > 50 µM (inactive). The GI50 (CCRF-CEM) was > 50 µM (inactive), the GI50 (COLO 205) was > 50 µM (inactive) and the GI50 (DU-145) was > 50 µM (inactive). The GI50 (EKVX) was > 50 µM (inactive), the GI50 (HCT-116) was > 50 µM (inactive) and the GI50 (HCT-15) was over 50 µM. The GI50 (HL-60) was > 50 µM (inactive), the GI50 (HOP-62) was > 50 µM (inactive) and the GI50 (HOP-92) was > 50 µM (inactive). For the same molecule, the GI50 (HT-29) was > 50 µM (inactive), the GI50 (Hs-578T) was > 50 µM (inactive) and the GI50 (IGROV-1) was > 50 µM (inactive). For the same molecule, the GI50 (K562) was > 50 µM (inactive), the GI50 (KM12) was > 50 µM (inactive) and the GI50 (LOX IMVI) was > 50 µM (inactive). For the same molecule, the GI50 (M14) was > 50 µM (inactive), the GI50 (MDA-MB-231) was > 50 µM (inactive) and the GI50 (MDA-MB-435) was > 50 µM (inactive). The GI50 (MDA-N) was > 50 µM (inactive), the GI50 (MOLT-4) was > 50 µM (inactive) and the GI50 (Malme-3M) was > 50 µM (inactive). For the same molecule, the GI50 (NCI-H226) was > 50 µM (inactive), the GI50 (NCI-H23) was > 50 µM (inactive) and the GI50 (NCI-H460) was > 50 µM (inactive). The GI50 (NCI-H522) was > 50 µM (inactive), the GI50 (NCI/ADR-RES) was > 50 µM (inactive) and the GI50 (OVCAR-3) was > 50 µM (inactive). For the same molecule, the GI50 (OVCAR-4) was > 50 µM (inactive), the GI50 (OVCAR-5) was > 50 µM (inactive) and the GI50 (OVCAR-8) was > 50 µM (inactive). For the same molecule, the GI50 (PC-3) was > 50 µM (inactive), the GI50 (RPMI-8226) was > 50 µM (inactive) and the GI50 (RXF 393) was > 50 µM (inactive). For the same molecule, the GI50 (SF-268) was > 50 µM (inactive), the GI50 (SF-295) was > 50 µM (inactive) and the GI50 (SF-539) was > 50 µM (inactive). The GI50 (SK-MEL-28) was > 50 µM (inactive), the GI50 (SK-MEL-2) was > 50 µM (inactive) and the GI50 (SK-MEL-5) was > 50 µM (inactive). For the same molecule, the GI50 (SK-OV-3) was > 50 µM (inactive), the GI50 (SN12C) was > 50 µM (inactive) and the GI50 (SNB-19) was > 50 µM (inactive). The GI50 (SR) was > 50 µM (inactive), the GI50 (SW-620) was > 50 µM (inactive) and the GI50 (T47D) was > 50 µM (inactive). The GI50 (TK-10) was > 50 µM (inactive), the GI50 (U-251) was > 50 µM (inactive) and the GI50 (UACC-257) was > 50 µM (inactive). For the same molecule, the GI50 (UACC-62) was > 50 µM (inactive) and the GI50 (UO-31) was > 50 µM (inactive).
For `COC(=O)C1(C(=O)OC)CC2=C(S(=O)(=O)c3ccccc3)C[C@H](S(=O)(=O)c3ccccc3)[C@H]2C1`, the GI50 (786-0) was > 100 µM (inactive), the GI50 (A498) was > 100 µM (inactive) and the GI50 (A549) was > 100 µM (inactive). For the same molecule, the GI50 (ACHN) was > 100 µM (inactive), the GI50 (BT-549) was > 100 µM (inactive) and the GI50 (CAKI-1) was > 100 µM (inactive). For the same molecule, the GI50 (CCRF-CEM) was > 100 µM (inactive), the GI50 (COLO 205) was 62.4 µM (inactive) and the GI50 (DU-145) was > 100 µM (inactive). For the same molecule, the GI50 (EKVX) was > 100 µM (inactive), the GI50 (HCC 2998) was 15.7 µM (inactive) and the GI50 (HCT-116) was 70.5 µM (inactive). The GI50 (HCT-15) was 35.3 µM, the GI50 (HOP-62) was 78.9 µM (inactive) and the GI50 (HOP-92) was 19.6 µM (inactive). The GI50 (HT-29) was > 100 µM (inactive), the GI50 (Hs-578T) was > 100 µM (inactive) and the GI50 (IGROV-1) was 19.9 µM (inactive). For the same molecule, the GI50 (K562) was 23.7 µM (inactive), the GI50 (KM12) was 91.8 µM (inactive) and the GI50 (LOX IMVI) was > 100 µM (inactive). The GI50 (M14) was > 100 µM (inactive), the GI50 (MDA-MB-231) was 27.4 µM (inactive) and the GI50 (MDA-MB-435) was 76.4 µM (inactive). For the same molecule, the GI50 (MDA-N) was 39.4 µM (inactive), the GI50 (MOLT-4) was 46.7 µM (inactive) and the GI50 (Malme-3M) was 80.2 µM (inactive). The GI50 (NCI-H226) was > 100 µM (inactive), the GI50 (NCI-H23) was > 100 µM (inactive) and the GI50 (NCI-H460) was 39.6 µM (inactive). For the same molecule, the GI50 (NCI-H522) was 33 µM (inactive), the GI50 (NCI/ADR-RES) was > 100 µM (inactive) and the GI50 (OVCAR-3) was 29 µM (inactive). The GI50 (OVCAR-4) was > 100 µM (inactive), the GI50 (OVCAR-5) was > 100 µM (inactive) and the GI50 (OVCAR-8) was > 100 µM (inactive). For the same molecule, the GI50 (PC-3) was 41.9 µM (inactive), the GI50 (RPMI-8226) was 11.7 µM (inactive) and the GI50 (RXF 393) was 13.8 µM (inactive). For the same molecule, the GI50 (SF-268) was > 100 µM (inactive), the GI50 (SF-295) was > 100 µM (inactive) and the GI50 (SK-MEL-28) was > 100 µM (inactive). The GI50 (SK-MEL-2) was 27.2 µM (inactive), the GI50 (SK-MEL-5) was 82.8 µM (inactive) and the GI50 (SK-OV-3) was > 100 µM (inactive). The GI50 (SN12C) was > 100 µM (inactive), the GI50 (SNB-19) was 71.6 µM (inactive) and the GI50 (SNB-75) was 37.8 µM (inactive). The GI50 (SW-620) was > 100 µM (inactive), the GI50 (T47D) was 30.3 µM (inactive) and the GI50 (TK-10) was 52.4 µM (inactive). For the same molecule, the GI50 (U-251) was > 100 µM (inactive), the GI50 (UACC-257) was > 100 µM (inactive) and the GI50 (UACC-62) was 23.3 µM (inactive). For the same molecule, the GI50 (UO-31) was > 100 µM (inactive).
For `CC(C)C1=CC23CCC4C(C)(C(=O)O)CCCC4(C)C2CC1C(C(=O)O)C3C(=O)O` (stereo unspecified), the GI50 (786-0) was > 100 µM (inactive), the GI50 (A498) was > 100 µM (inactive) and the GI50 (A549) was > 100 µM (inactive). For the same molecule, the GI50 (ACHN) was > 100 µM (inactive), the GI50 (BT-549) was > 100 µM (inactive) and the GI50 (CAKI-1) was > 100 µM (inactive). For the same molecule, the GI50 (CCRF-CEM) was > 100 µM (inactive), the GI50 (DU-145) was > 100 µM (inactive) and the GI50 (EKVX) was > 100 µM (inactive). The GI50 (HCT-116) was > 100 µM (inactive), the GI50 (HCT-15) was over 100 µM and the GI50 (HOP-62) was > 100 µM (inactive). The GI50 (HOP-92) was > 100 µM (inactive), the GI50 (HT-29) was > 100 µM (inactive) and the GI50 (Hs-578T) was > 100 µM (inactive). The GI50 (IGROV-1) was > 100 µM (inactive), the GI50 (K562) was > 100 µM (inactive) and the GI50 (KM12) was > 100 µM (inactive). The GI50 (LOX IMVI) was > 100 µM (inactive), the GI50 (M14) was > 100 µM (inactive) and the GI50 (MDA-MB-231) was > 100 µM (inactive). The GI50 (MDA-MB-435) was > 100 µM (inactive), the GI50 (MOLT-4) was > 100 µM (inactive) and the GI50 (Malme-3M) was > 100 µM (inactive). The GI50 (NCI-H226) was > 100 µM (inactive), the GI50 (NCI-H23) was > 100 µM (inactive) and the GI50 (NCI-H460) was > 100 µM (inactive). The GI50 (NCI-H522) was > 100 µM (inactive), the GI50 (NCI/ADR-RES) was > 100 µM (inactive) and the GI50 (OVCAR-3) was > 100 µM (inactive). For the same molecule, the GI50 (OVCAR-4) was > 100 µM (inactive), the GI50 (OVCAR-5) was > 100 µM (inactive) and the GI50 (OVCAR-8) was > 100 µM (inactive). The GI50 (PC-3) was > 100 µM (inactive), the GI50 (RXF 393) was > 100 µM (inactive) and the GI50 (SF-268) was > 100 µM (inactive). The GI50 (SF-295) was > 100 µM (inactive), the GI50 (SK-MEL-28) was > 100 µM (inactive) and the GI50 (SK-MEL-2) was > 100 µM (inactive). The GI50 (SK-MEL-5) was > 100 µM (inactive), the GI50 (SN12C) was > 100 µM (inactive) and the GI50 (SNB-19) was > 100 µM (inactive). For the same molecule, the GI50 (SNB-75) was > 100 µM (inactive), the GI50 (SR) was > 100 µM (inactive) and the GI50 (SW-620) was > 100 µM (inactive). The GI50 (T47D) was > 100 µM (inactive), the GI50 (TK-10) was > 100 µM (inactive) and the GI50 (U-251) was > 100 µM (inactive). The GI50 (UACC-62) was > 100 µM (inactive) and the GI50 (UO-31) was > 100 µM (inactive).
